*: point of attachment. ACC = NC(=O)Cc1cc(=O)oc2cc(N*)ccc12
Tests used:
[1] = target: T1, SARS-CoV-2 PLpro (Severe acute respiratory syndrome coronavirus 2, UniProt P0DTD1)
[2] = target: T2, human DUB UCH-L3 (Homo sapiens, UniProt P15374); format: biochemical
[3] = target: T1, SARS-CoV-2 PLpro; remark: listed apart in the source
[4] = test system: human DUBs in HeLa lysates; format: biochemical
[5] = target: T2, human DUB UCH-L3; format: biochemical; remark: listed apart in the source

T2 sequence (P15374 whole entry, looked up): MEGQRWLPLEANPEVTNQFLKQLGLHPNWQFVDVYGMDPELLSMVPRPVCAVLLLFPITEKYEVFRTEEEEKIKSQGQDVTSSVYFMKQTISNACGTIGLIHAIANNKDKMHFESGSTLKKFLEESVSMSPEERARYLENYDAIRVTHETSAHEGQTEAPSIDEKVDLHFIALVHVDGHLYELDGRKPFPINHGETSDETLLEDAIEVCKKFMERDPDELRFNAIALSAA

Substance	substrate recognition (hydrolysis rate, RFU/s) [1]	substrate recognition (hydrolysis rate, RFU/s) [2]	inhibition of DUB activity (residual activity) [3]	Ub-VME cross-linking profile of HeLa lysates on titration of inhibitor [4]	inhibition of DUB activity (residual activity) [5]
Ac-LRGG-{ACC} [Ac-LRGG-ACC]	recognized	recognized	–	–	–
Ac-Abu(Bth)-Dap-Gly-Gly-VME [VIR250]	–	–	robustly inhibit	unaltered	practically no inhibition

Reference: PMC7567588 (Science Advances, 2020)
